Measurements published in ChEMBL document CHEMBL1201862, “PubChem BioAssay data set” (2004).
Activity calls are given as the source filed them.

Key:
[1] = Luminescence Cell-Based Dose Retest to Confirm Inhibitors of Cancer Stem Cells. [Related pubchem assays (depositor defined):AID2717, AID2721]; assay type: functional; conditions: Homo sapiens
[2] = target: Cytochrome P450 2D6 (Homo sapiens, UniProt P10635);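 note: CYP2D6 member of a cytochrome P450 panel assay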
[3] = luciferase reporter signal suppression in cells – H4 neuroglioma cells, luminescence, dose response (AID 1990); assay type: functional, cell-based
[4] = Luminescence Cell-Based Dose Response HTS to Identify Inhibitors of 5'UTR Stem-Loop Driven Prion Protein mRNA Translation in H4 Neuroglioblastoma Cells. [Related pubchem assays: 1827 (Project Summary), 1813 (Primary HTS)]; assay type: functional
[5] = target: T1, Heat shock factor protein 1 (Mus musculus, UniProt P38532); test: decrease of HSF1-responsive luciferase luminescence – cell-based, NIH3T3, dose retest, confirmation (AID 2382); assay type: functional;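 note: NIH3T3 fibroblasts with HSF1-driven luciferase reporter stressed by proteasome inhibitor MG132; luminescence from HSF1-driven luciferase expression after 8 hours of MG132 stress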
T1 sequence (P38532 whole entry): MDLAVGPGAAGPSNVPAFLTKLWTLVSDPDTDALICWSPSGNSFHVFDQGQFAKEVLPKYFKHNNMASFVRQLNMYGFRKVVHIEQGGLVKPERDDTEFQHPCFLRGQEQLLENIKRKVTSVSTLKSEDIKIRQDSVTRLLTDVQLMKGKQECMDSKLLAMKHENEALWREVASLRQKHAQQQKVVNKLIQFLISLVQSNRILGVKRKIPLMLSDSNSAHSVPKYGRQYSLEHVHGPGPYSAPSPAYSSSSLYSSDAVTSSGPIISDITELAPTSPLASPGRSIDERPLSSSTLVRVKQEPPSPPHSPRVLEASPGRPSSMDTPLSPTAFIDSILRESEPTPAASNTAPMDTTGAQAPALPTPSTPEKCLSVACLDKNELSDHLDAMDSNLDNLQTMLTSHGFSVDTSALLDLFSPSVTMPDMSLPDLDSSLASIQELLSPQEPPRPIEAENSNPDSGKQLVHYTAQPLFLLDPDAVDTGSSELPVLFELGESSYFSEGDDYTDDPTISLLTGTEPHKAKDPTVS

[6] = alpha-synuclein stem-loop luciferase translation blockers – H4 neuroglioma cells, luminescence, confirmation (AID 1988); assay type: functional, cell-based
[7] = target: T2, Corticotropin-releasing factor receptor 2/Corticotropin-releasing factor-binding protein (Homo sapiens, UniProt P24387+Q13324); test: Dose Response confirmation of uHTS hits for small molecule antagonists of the CRF-binding protein and CRF-R2 receptor complex.; assay type: functional; conditions: read-out: IC50_Mean
T2 sequence (Q13324 whole entry): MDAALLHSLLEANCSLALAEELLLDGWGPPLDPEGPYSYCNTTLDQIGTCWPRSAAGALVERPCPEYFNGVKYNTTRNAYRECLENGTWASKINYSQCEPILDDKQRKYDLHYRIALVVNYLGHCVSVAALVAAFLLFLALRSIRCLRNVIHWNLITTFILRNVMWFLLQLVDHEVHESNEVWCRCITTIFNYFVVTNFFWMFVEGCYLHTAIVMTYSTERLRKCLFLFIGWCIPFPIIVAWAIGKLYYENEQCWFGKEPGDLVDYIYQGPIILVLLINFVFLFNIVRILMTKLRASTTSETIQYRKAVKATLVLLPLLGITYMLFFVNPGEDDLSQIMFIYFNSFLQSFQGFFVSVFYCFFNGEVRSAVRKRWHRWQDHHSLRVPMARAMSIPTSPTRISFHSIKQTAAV
T2 sequence (P24387 whole entry): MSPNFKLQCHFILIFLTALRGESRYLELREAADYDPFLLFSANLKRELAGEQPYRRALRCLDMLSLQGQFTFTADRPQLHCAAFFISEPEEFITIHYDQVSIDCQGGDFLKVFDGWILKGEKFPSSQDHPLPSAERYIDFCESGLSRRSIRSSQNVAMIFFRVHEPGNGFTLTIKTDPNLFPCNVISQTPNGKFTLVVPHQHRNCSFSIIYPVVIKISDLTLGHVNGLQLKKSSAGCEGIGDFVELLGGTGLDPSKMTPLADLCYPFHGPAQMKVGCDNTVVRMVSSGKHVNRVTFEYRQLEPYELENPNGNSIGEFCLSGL

[8] = target: T2, Corticotropin-releasing factor receptor 2/Corticotropin-releasing factor-binding protein; test: activators of CRF receptor 2 with binding protein – uHTS hits, confirmation (AID 602473); assay type: functional; conditions: read-out: EC50_Mean
[9] = target: T3, Polyadenylate-binding protein 1 (Homo sapiens, UniProt P11940); test: MLLE binding blockers, Cy5 peptide tracer – biochemical, fluorescence polarization, Cy5-PAM2 peptide, secondary, miRNA deadenylation inhibitor project, dose response (AID 602260); assay type: functional; conditions: read-out: IC50_Mean
[10] = target: T3, Polyadenylate-binding protein 1; test: MLLE domain peptide-binding blockers, IC50 – biochemical, fluorescence polarization, FITC-PAM2 peptide, dose response (AID 602259); assay type: functional; conditions: read-out: IC50_Mean
[11] = target: Cytochrome P450 3A4 (Homo sapiens, UniProt P08684);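 note: CYP3A4 tested as one member of a cytochrome P450 panel screen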
[12] = target: Cytochrome P450 2C19 (Homo sapiens, UniProt P33261); test: Cytochrome panel assay with activity outcomes. Panel member name: p450-cyp2c19 Compounds with AC50 equal or less than 10 uM are considered active; assay type: functional; conditions: read-out: AC50
[13] = target: Cytochrome P450 2C9 (Homo sapiens, UniProt P11712)
[14] = Trypanosoma cruzi growth suppression in host cells – NIH3T3 host cells, beta-gal luminescence, confirmation (AID 2044); assay type: functional, cell-based;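 note: intracellular parasites grown in NIH/3T3 mouse fibroblasts as host cells; luminescent beta-galactosidase reporter signal from transgenic T. cruzi replicating inside host cells; inhibitors lower the luminescence signal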
[15] = NIH3T3 cell viability loss – ATP luminescence, mouse fibroblasts, counter-screen, dose response (AID 2010); assay type: functional, cell-based;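 note: cells exposed to compound for about 90 hours before reading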

Chain of Cytochrome P450 3A4 (P08684 whole entry): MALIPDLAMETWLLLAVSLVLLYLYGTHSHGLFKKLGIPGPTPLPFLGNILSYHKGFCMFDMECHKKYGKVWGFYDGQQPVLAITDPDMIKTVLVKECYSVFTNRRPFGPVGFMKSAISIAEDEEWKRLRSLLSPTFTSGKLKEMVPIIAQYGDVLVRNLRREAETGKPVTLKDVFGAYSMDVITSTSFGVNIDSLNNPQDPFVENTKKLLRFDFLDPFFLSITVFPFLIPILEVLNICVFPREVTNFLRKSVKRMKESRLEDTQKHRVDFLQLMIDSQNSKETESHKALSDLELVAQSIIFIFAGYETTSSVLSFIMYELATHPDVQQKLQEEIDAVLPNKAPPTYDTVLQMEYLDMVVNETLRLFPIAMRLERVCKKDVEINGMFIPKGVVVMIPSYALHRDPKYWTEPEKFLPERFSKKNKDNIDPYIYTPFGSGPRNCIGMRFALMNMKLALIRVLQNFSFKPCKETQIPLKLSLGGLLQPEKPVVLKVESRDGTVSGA
Chain of Cytochrome P450 2D6 (P10635 whole entry): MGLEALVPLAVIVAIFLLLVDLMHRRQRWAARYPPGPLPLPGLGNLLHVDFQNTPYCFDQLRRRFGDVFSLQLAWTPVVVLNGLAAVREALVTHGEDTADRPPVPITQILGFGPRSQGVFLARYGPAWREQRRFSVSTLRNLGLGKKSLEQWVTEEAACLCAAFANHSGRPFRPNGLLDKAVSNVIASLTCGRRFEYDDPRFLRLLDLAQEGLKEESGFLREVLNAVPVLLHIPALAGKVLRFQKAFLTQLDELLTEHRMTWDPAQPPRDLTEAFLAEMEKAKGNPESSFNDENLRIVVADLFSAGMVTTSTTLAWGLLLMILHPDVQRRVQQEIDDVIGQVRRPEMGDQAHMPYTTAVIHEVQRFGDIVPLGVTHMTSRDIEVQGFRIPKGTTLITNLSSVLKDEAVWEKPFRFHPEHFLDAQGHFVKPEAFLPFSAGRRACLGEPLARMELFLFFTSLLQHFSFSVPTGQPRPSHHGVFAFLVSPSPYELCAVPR
T3 sequence (P11940 whole entry, the tested form may be a part): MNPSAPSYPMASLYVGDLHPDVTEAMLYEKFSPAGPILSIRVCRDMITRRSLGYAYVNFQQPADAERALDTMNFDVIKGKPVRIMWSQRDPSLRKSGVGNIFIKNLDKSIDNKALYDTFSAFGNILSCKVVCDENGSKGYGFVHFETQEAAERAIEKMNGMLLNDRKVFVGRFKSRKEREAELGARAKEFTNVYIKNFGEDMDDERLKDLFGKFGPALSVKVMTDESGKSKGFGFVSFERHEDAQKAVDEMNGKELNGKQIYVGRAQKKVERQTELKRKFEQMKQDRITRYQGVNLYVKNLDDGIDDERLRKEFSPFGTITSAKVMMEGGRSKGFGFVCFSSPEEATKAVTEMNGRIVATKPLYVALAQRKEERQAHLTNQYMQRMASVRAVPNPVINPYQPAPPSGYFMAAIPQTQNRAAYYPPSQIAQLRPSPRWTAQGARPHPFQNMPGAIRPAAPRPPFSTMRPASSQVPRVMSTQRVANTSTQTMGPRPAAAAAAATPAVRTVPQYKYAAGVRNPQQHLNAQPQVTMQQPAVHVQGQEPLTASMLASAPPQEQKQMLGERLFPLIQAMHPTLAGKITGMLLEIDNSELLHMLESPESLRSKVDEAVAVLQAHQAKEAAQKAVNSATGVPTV
Chain of Cytochrome P450 2C9 (P11712 whole entry): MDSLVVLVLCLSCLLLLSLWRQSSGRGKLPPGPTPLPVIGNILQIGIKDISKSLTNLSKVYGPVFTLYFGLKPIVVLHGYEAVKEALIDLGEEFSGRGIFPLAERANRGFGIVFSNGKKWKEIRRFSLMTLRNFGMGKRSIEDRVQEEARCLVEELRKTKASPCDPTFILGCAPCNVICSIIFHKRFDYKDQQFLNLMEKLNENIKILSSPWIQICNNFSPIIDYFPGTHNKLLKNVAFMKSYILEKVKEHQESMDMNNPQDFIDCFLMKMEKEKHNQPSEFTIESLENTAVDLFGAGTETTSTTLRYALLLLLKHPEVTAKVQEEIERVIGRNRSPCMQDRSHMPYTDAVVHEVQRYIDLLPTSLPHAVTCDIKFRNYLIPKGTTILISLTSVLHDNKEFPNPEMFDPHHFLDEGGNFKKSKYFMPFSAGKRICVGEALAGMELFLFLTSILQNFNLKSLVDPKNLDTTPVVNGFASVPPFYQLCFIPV
Chain of Cytochrome P450 2C19 (P33261 whole entry): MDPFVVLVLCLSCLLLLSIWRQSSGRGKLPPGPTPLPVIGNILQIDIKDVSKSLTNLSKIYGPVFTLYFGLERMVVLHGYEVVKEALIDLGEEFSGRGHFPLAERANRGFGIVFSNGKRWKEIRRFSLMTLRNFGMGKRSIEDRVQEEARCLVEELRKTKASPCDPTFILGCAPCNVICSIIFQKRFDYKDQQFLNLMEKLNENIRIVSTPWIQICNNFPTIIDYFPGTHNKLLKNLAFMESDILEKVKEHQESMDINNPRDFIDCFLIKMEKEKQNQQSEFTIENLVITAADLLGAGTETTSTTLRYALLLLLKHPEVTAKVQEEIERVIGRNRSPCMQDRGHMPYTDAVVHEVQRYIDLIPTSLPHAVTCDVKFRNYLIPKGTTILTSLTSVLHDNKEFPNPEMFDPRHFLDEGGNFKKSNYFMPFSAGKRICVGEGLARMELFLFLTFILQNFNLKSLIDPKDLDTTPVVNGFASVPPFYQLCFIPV

In the case of `Nc1ccc(CCN2CCN(c3cccc(C(F)(F)F)c3)CC2)cc1`, the AC50 [1] is reported as 1.35 µM (active) and the AC50 [2] is reported as 12.6 µM (inconclusive).
For `COCCN(Cc1ccccc1)C(S)=Nc1ccc(Cl)cc1`, the EC50 [3] was > 120 µM (not active), the EC50 [4] was > 120 µM (not active) and the EC50 [5] was 30.3 µM (active). For the same compound, the EC50 [6] was 16.8 µM (active).
In the case of `CCOc1ccccc1NC(=O)C1CCCN1S(=O)(=O)c1ccccc1C(F)(F)F` (stereo unspecified), the IC50 [7] is reported as > 47.1 µM (inactive) and the EC50 [8] is reported as > 53 µM (inactive).
For `CCN1C(=O)/C(=C/c2ccc(OC)c(OC)c2)N=C1SCC(=O)NCc1ccco1`, the IC50 [9] was > 66 µM (inactive) and the IC50 [10] was > 66 µM (inactive).
With `COc1cccc(Nc2ncc(C#N)c(N)n2)c1` the EC50 [3] was 16.4 µM (active), the EC50 [4] was 14.2 µM (active) and the EC50 [6] was 14.5 µM (active).
For `C1CC2CN(c3nc4nonc4nc3N3CCSCC3)CCN2C1` (stereo unspecified), the IC50 [9] was > 66 µM (inactive) and the IC50 [10] was > 66 µM (inactive).
With `CCc1ccc(CNn2cnnc2SCC(=O)NC(C)(C)C)cc1` the EC50 [3] was > 120 µM (not active), the EC50 [4] was > 120 µM (not active) and the EC50 [6] was > 120 µM (not active).
For `CC(=O)N1CCC[C@@]2(CCN(Cc3ccccc3)C2)C1`, the AC50 [2] was 15.8 µM (inconclusive) and the AC50 [11] was 39.8 µM (inconclusive).
With `CC(C)(C)c1cc(C(=O)O)nn1-c1ccccc1` the IC50 [7] was > 47.1 µM (inactive) and the EC50 [8] was > 53 µM (inactive).
In the case of `c1ccc2nc(C3=NCCN3)ccc2c1`, the AC50 [2] is reported as 20 µM (inconclusive).
In the case of `COc1ccc(OCCCC(=O)Nc2cccnc2)cc1`, the IC50 [7] is reported as > 47.1 µM (inactive) and the EC50 [8] is reported as > 53 µM (inactive).
For `O=C(COc1ncnc2sccc12)N1CCN(C(=O)c2ccco2)CC1`, the EC50 [3] was > 120 µM (not active), the EC50 [4] was > 120 µM (not active) and the EC50 [6] was > 120 µM (not active).
For `CS(=O)(=O)N1CCN(c2ccccc2NC(=O)c2ccc(Br)o2)CC1`, the AC50 [12] was 39.8 µM (inconclusive) and the AC50 [2] was 22.4 µM (inconclusive).
For `C/C(CCN1CCCc2nc(C)c(C)cc21)=N\O[C@@H](C)c1cn([C@H](CO)Cc2ccccc2)nn1`, the AC50 [2] was 3.98 µM (inconclusive).
With `CN(C)c1ccc(-c2nc3n(n2)C(c2cccnc2)C2=C(O)CC(C)(C)CC2=N3)cc1` (stereo unspecified) the EC50 [5] was > 195 µM (not active), the AC50 [2] was 17.8 µM (inconclusive) and the AC50 [13] was 28.2 µM (inconclusive).
With `Cc1ccc(NC(=O)CSc2nc3ccccc3c(=O)n2CCCC(=O)NCCCN2CCOCC2)cc1` the IC50 [7] was > 47.1 µM (inactive) and the EC50 [8] was > 53 µM (inactive).
With `CCC(NN1CCCCC1)=C1C(=O)NC(=O)NC1=O` the EC50 [3] was 11.9 µM (active), the EC50 [4] was > 120 µM (not active) and the EC50 [6] was 10.2 µM (active).
For `CC(C)NC(=O)N1CCCC2(CCN(C(=O)c3csnn3)CC2)C1`, the AC50 [2] was 12.6 µM (inconclusive) and the AC50 [11] was 25.1 µM (inconclusive).
For `O=C(CN1CCc2ccccc21)NC(=O)NCc1ccco1`, the AC50 [2] was 14.1 µM (inconclusive) and the AC50 [11] was 28.2 µM (inconclusive).
For `O=c1c(-c2cccs2)nc2cnc(N3CCNCC3)nc2n1CCc1ccccc1`, the AC50 [2] was 25.1 µM (inconclusive).
For `FC(F)(F)c1ccccc1-c1nc(NCc2cccs2)c2ccccc2n1`, the AC50 [2] was 25.1 µM (inconclusive).
With `CCOC(=O)CSC1=N/C(=C\c2cc(OC)c(OC)c(OC)c2)C(=O)N1C` the IC50 [9] was > 66 µM (inactive) and the IC50 [10] was > 66 µM (inactive).
In the case of `CC(=O)N(C(C)=O)c1ncnc2c1c(-c1ccc(Cl)cc1)nn2C(C)(C)C`, the EC50 [3] is reported as 13.1 µM (active), the EC50 [4] is reported as 20.1 µM (active) and the EC50 [6] is reported as 25.1 µM (active). For the same compound, the EC50 [14] was 0.512 µM (active) and the EC50 [15] was 4.21 µM (active).
In the case of `Cc1nn(Cc2ccccc2Cl)c(C)c1NC(=O)c1nc2ncccn2n1`, the IC50 [7] is reported as > 47.1 µM (inactive) and the EC50 [8] is reported as > 53 µM (inactive).
With `COCc1cc(O)n2nc(-c3ccccc3)cc2n1` the IC50 [7] was > 47.1 µM (inactive) and the EC50 [8] was > 53 µM (inactive).
For `Cc1ccc(C(=O)COc2cc(O)c3c(=O)cc(-c4ccccc4)oc3c2)cc1`, the IC50 [7] was > 47.1 µM (inactive) and the EC50 [8] was > 53 µM (inactive).
In the case of `CCOc1ccccc1N(C)C(=O)Cn1ncc2c3ccccc3nc-2c1O`, the IC50 [7] is reported as > 47.1 µM (inactive) and the EC50 [8] is reported as > 53 µM (inactive).
For `COCC(=O)N1CCC2(CCCN(c3ncccn3)C2)CC1`, the AC50 [2] was 20 µM (inconclusive).
In the case of `CCOC(=O)c1ccc(N2CN(CC)CN=C2S)cc1`, the EC50 [3] is reported as > 120 µM (not active), the EC50 [4] is reported as > 120 µM (not active) and the EC50 [6] is reported as > 120 µM (not active).
In the case of `CCOc1ccc(-n2c(SCC(=O)Nc3ccc(OC)cc3)nc3c(c2=O)SCC3)cc1`, the AC50 [2] is reported as 15.8 µM (inconclusive), the AC50 [11] is reported as 7.94 µM (inconclusive) and the AC50 [13] is reported as 3.55 µM (inconclusive).
With `CCOC(=O)c1[nH]c2ccccc2c1NC(=O)Nc1ccc(OC)cc1` the IC50 [7] was > 47.1 µM (inactive) and the EC50 [8] was > 53 µM (inactive).
With `O=C(NCCN1CCN(Cc2ccccc2)CC1)C1c2ccccc2C(=O)N2CCc3ccccc3C12` (stereo unspecified) the AC50 [12] was 39.8 µM (inconclusive) and the AC50 [2] was 11.2 µM (inconclusive).
In the case of `CC(C)C(NC(=O)c1ccco1)C(=O)NC1CCCCCC1` (stereo unspecified), the IC50 [7] is reported as > 47.1 µM (inactive) and the EC50 [8] is reported as > 53 µM (inactive).
In the case of `C=C(C)c1cccc(C(C)(C)NC(=O)Nc2cc(C)ccc2OC)c1`, the AC50 [2] is reported as 12.6 µM (inconclusive).
For `O=C(COC(=O)c1ccncc1)Nc1cc(Cl)ccc1Cl`, the IC50 [7] was > 47.1 µM (inactive) and the EC50 [8] was > 53 µM (inactive).
With `CC1=C(C(=O)OCc2ccccc2)C(c2ccc([N+](=O)[O-])cc2)NC(=O)N1CCCCCC(=O)O` (stereo unspecified) the AC50 [2] was 20 µM (inconclusive) and the AC50 [11] was 10 µM (inconclusive).
For `Nc1ccc(C(=O)N/N=C/c2cn(Cc3ccc(F)cc3)c3ccccc23)cc1`, the EC50 [3] was 10.1 µM (active), the EC50 [4] was 17.7 µM (active) and the EC50 [6] was 7.7 µM (active).
